In patent US20240374763A1, “DIAGNOSIS AND MONITORING USING EXTRADOMAIN-B FIBRONECTIN TARGETED PROBES” (Case Western Reserve University, priority 2020, published 2024):
No end group written: not given here.

Columns and labels:
Assay type in all cases: in vivo, mice
DLD1-DR tumors = assay: MRMI of EDB-FN with MT218, DLD1-DR xenografts
Protocol: (§1) Nude athymic mice (6-week-old nu/nu females) were purchased from The Jackson Laboratory (Bar Harbor, […]) and housed in the Animal Facility at CWRU. All the animal experiments were performed according to the protocol approved by the IACUC of CWRU. For assessment of drug resistance, 2 drug-resistant and 2 non-drug-resistant models were set up. About 3-4×10^6 DLD-1, RKO, DLD1-DR, and RKO-DR cells suspended in Matrigel-PBS mixture (1:1) were subcutaneously injected in the left flanks of nude mice (100 μL per mouse, 5 mice per group×4 models=20 mice). After 9 days when the tumors reached 100-200 mm3, MRMI was performed on the 4 xenograft models with 40 μmol/kg dose of MT218. The animals were then euthanized, and the tumors were harvested for post-mortem histology and IHC.
(§2) MT218 was synthesized as previously described. Ayat, N. R., et al., ACS Med Chem Lett, 2018. 9(7): p. 730-735. Briefly, click reaction between alkynyl-ZD2 and N3-Gd(HP-DO3A) was performed in the presence of CuSO4 and ascorbate at room temperature, followed by FLASH chromatography purification and validation of MT218 by MALDI-TOF mass spectrometry (m.w. 1443). For assessment of drug resistance and therapeutic monitoring, MRMI was performed in a 3T MRS 3000 scanner (MR Solutions, Surrey, UK) with a mouse short quad coil. The mice were anesthetized with isofluorane and tail vein catheter was setup. T1-weighted MR images were obtained before (pre-contrast) and 25 min after injection (post-contrast) of 40 μmol/kg dose of MT218 [ZD2-N3—Gd(HP-DO3A)]. The following two sequences were used with respiratory gating: axial fast spin echo (FSE) (TR=305 ms, TE=11 ms, FA=90°, FOV=40 mm×40 mm, slice thickness=1 mm, slice number=15, Nav=2, matrix=256×256) and coronal FSE (TR=305 ms, TE=11 ms, FA=90°, FOV=90 mm×90 mm, slice thickness=1 mm, slice number=20, Nav=1, matrix=248×512). […] Contrast-to-noise ratios (CNRs) were calculated as (mean tumor intensity—mean muscle intensity)/standard deviation of noise. […]

RKO-DR tumors = assay: MRMI of EDB-FN with MT218, RKO-DR xenografts
Protocol: as §1, §2

HSC3 tumors = assay: MRMI of OSCC flank xenografts, HSC3; conditions: MT218 0.04 mmol/kg
Protocol: (§3) Animal experiments were performed under an animal protocol approved by the Institutional Animal Care and Use Committee (IACUC) at Case Western Reserve University (CWRU, Cleveland, OH, USA). Female 4-week-old athymic nude mice purchased from the Jackson Laboratory (Bar Harbor, ME, USA) were housed in the Animal Core Facility at CWRU. Anesthetized mice were subcutaneously inoculated in the right flank with 4×10^6 GFP/luciferase-expressing OSCC cells (n=5 per cell line) in 100 μL of a 1:1 mixture of Matrigel HC (Corning) and DPBS. Tumor size was monitored with caliper measurements. After 4 weeks of growth, tumors were sufficiently large for MRI experiments.
MRI experiments were performed with a 3T MRS-3000 system (MR Solutions, Surrey, UK). Tumor-bearing mice were imaged before and at 10, 20, […] spin-echo axial sequence with respiratory gating (TR=305 ms, TE=11 ms, FOV=40×40 mm, slice thickness=1 mm, number of slices=15, Nav=2, matrix=256×248). This protocol was repeated on the same mice 2 days later using the untargeted clinical agent gadoteridol at the clinical dose of 0.10 mmol/kg.
(§4) Images were exported in DICOM format and analyzed using FIJI. Contrast-to-noise ratio (CNR) for each time point was calculated as the difference between the mean tumor intensity and the mean muscle intensity, divided by the standard deviation of noise.

SCC4 tumors = assay: MRMI of OSCC flank xenografts, SCC4; conditions: MT218 0.04 mmol/kg
Protocol: as §3
MRI experiments were performed with a 3T MRS-3000 system (MR Solutions, Surrey, UK). […] This protocol was repeated on the same mice 2 days later using the untargeted clinical agent gadoteridol at the clinical dose of 0.10 mmol/kg.
as §4

LNCaP tumors = assay: MRMI with MT218, LNCaP xenografts; conditions: 0.04 mmol Gd/kg, 20 min post-injection
Excerpt: (§5) Xenograft models were established by subcutaneous flank injections in athymic nu/nu mice for the 4 prostate cancer cells and tested with MRMI using 0.04 mmol Gd/kg of MT218.

C4-2 tumors = assay: MRMI with MT218, C4-2 xenografts; conditions: 0.04 mmol Gd/kg, 20 min post-injection
Excerpt: as §5

C4-2-DR tumors = assay: MRMI with MT218, C4-2-DR xenografts; conditions: 0.04 mmol Gd/kg, 20 min post-injection
Excerpt: as §5

PC3-DR tumors = assay: MRMI with MT218, PC3-DR xenografts; conditions: 0.04 mmol Gd/kg, 20 min post-injection, p=0.07
Excerpt: as §5

MDA-MB-231 tumors = assay: MRMI-mediated monitoring of therapeutic response, MDA-MB-231 tumors; conditions: pretreatment MDA-MB-231 tumors, MT218 0.1 mmol/kg, first 30 min
Protocol: The targeted MRI contrast agent ZD2-N3-Gd(HP-DO3A) (MT218) was provided by Molecular Theranostics (Cleveland, OH) and was synthesized. MR images of the mice bearing MDA-MB-231 or Hs578T tumors were acquired on a 3T MRS 3000 scanner (MRS Solutions, Surrey, UK) with a mouse short quad coil. T1-weighted images were acquired following intravenous injection of MT218 at dose of 0.1 mmol/kg using a fast spin echo (FSE) axial sequence with respiratory gating (TR=305 ms, TE=11 ms, FA=90°, FOV=40×40 mm, slice thickness=1 mm, slice number=15, Nav=2, matrix=256×256). Images were acquired before and at 10, 20, and 30 min after injection of MT218. MRMI was performed before the treatment and then at week 6 post-nanoparticle treatments for MDA-MB-231 and Hs578T tumors. MRI data and image processing was conducted using FIJI (FIJI is just ImageJ) software. The contrast-to-noise ratios (CNRs) of tumors were calculated as the difference of the mean tumor intensity and the mean muscle intensity divided by the standard deviation of the noise.

[1] = DLD1-DR over DLD-1 tumors, 40 μmol/kg MT218
[2] = RKO-DR over RKO tumors, 40 μmol/kg MT218

Substance: ZD2-N3-Gd(HP-DO3A) (TVRTSAD; also: conjugated to Gd(HP-DO3A) by click reaction of alkynyl-ZD2 with N3-Gd(HP-DO3A), residue of attachment not given here, Gd complex) [MT218, EDB-FN-targeted MRI contrast agent; ZD2 peptide conjugated to the clinical macrocyclic agent Gd(HP-DO3A)]
- higher CNRs over the non-resistant tumors (DLD1-DR tumors; [1]): 2.2 fold
- increase in CNR over the non-resistant tumors (DLD1-DR tumors; [1]): 120%
- higher CNRs over pre-contrast (DLD1-DR tumors; DLD1-DR tumors, 40 μmol/kg MT218, 25 min post-injection): 3.3 fold
- higher CNRs over the non-resistant tumors (RKO-DR tumors; [2]): 1.8 fold
- increase in CNR over the non-resistant tumors (RKO-DR tumors; [2]): 84%
- higher CNRs over pre-contrast (RKO-DR tumors; RKO-DR tumors, 40 μmol/kg MT218, 25 min post-injection): 2.6 fold
- average maximum enhancement (CNR) (HSC3 tumors): 2.61±0.17
- average maximum enhancement (CNR) (SCC4 tumors): 3.81±0.25
- increase in CNR (LNCaP tumors): negligible
- increase of CNR (C4-2 tumors): ~3 fold
- increase of CNR (C4-2-DR tumors): 6 fold
- CNR over the pre-contrast (PC3-DR tumors): 1.6 fold
- signal enhancement vs pre-contrast (MDA-MB-231 tumors): Strong signal enhancement
